A value given as a limit tells only on which side of the number the result lay.

For assay [1], the system named is acetylated histone H3 in A549 lung adenocarcinoma cells. Description: Acetylated histone H3 in-cell western (ICW) assay. The conditions noted are these: Homo sapiens, 16 h exposure, relative to 40 μM Trichostatin A positive control, read-out: EC50 Ac-histone H3, A549 cells. The format is cell-based. Summed up:
(§1)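 A549 cells exposed to compound for 16 h at 37 °C (0.4% DMSO final), then fixed and immunostained for acetylated α-tubulin or histone H3 with near-infrared detection, signal normalised to cell stain. Response expressed relative to DMSO controls and to 40 μM scriptaid (tubulin) or 40 μM TSA (H3); EC50 by constrained nonlinear regression.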

The next assay has as its target T1, Human HDAC10 (Homo sapiens, UniProt Q969S8).
T1 construct: Human HDAC10 (a.a. 1-481); GST (N); His (C); host or cells: baculovirus expression system
T1 sequence (Q969S8 1-481): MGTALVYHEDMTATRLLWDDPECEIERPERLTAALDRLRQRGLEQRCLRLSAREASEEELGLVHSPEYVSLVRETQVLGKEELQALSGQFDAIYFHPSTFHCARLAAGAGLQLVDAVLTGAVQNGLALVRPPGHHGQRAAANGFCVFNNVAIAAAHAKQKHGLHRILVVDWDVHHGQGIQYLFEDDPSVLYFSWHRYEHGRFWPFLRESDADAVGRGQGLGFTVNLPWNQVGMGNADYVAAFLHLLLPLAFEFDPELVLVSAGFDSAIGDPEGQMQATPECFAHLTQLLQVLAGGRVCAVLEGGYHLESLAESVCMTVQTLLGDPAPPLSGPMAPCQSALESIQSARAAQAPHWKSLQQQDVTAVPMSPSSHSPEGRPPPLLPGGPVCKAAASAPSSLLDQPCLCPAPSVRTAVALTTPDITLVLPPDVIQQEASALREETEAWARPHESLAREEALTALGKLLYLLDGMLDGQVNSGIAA
Description: HDAC10 biochemical assay, AMC-labeled peptide substrate. As to conditions: read-out: HDAC Isoform IC50 (nM) 10. In outline:
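Two-step fluorogenic read-out (Ex/Em 360/460) after developer digestion of deacetylated RHKK(Ac)AMC (50 μM). Deacetylation ran 2 h at 30 °C with 12 ng/ul HDAC10 (aa 1-481, GST/His tags, baculovirus) in Tris-HCl pH 8.0, BSA, 1% DMSO.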

The target of the next assay is T2, Human HDAC2 (Homo sapiens, UniProt Q92769).
T2 construct: full length with C-terminal GST-tag; GST (C); host or cells: baculovirus expression system
Description: HDAC2 biochemical assay, AMC-labeled peptide substrate. The conditions noted are these: read-out: HDAC Isoform IC50 (nM) 2. In outline:
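Full-length human HDAC2 with C-terminal GST tag, baculovirus-expressed, at 0.07 ng/ul with 50 μM RHKK(Ac)AMC substrate in Tris-HCl pH8.0 buffer with BSA, 1% DMSO final. Incubated 1 hour at 30° C with compounds, then developer added; fluorescence read at 360/460 Ex/Em.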

Assay [2] deals with acetylated α-tubulin in A549 lung adenocarcinoma cells. In words: Acetylated α-tubulin in-cell western (ICW) assay. The format is cell-based. The conditions noted are these: Homo sapiens, 16 h exposure, relative to 40 μM scriptaid positive control, read-out: EC50 Ac-α-tubulin, A549 cells. Summed up:
as §1

T2 sequence (Q92769 whole entry): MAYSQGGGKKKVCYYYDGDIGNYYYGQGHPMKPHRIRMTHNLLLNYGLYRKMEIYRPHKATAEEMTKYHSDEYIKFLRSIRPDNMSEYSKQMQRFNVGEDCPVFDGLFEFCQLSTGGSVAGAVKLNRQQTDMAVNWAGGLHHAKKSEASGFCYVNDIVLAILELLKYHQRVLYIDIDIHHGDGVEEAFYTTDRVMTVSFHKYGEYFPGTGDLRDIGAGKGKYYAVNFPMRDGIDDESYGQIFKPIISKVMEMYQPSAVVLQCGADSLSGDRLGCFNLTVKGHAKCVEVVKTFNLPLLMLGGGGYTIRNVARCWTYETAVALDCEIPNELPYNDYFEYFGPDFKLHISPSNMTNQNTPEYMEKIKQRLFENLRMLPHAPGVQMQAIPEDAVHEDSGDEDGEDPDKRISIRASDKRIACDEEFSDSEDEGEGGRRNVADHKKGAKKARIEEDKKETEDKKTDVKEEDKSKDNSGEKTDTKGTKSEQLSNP

A word on the EC50: it is the concentration that produces a half-maximal response. Broadly, the IC50 is the concentration at which inhibition is half-maximal. With `CN(C)C1CN(C(=O)c2cnnc(N(Cc3ccc(-c4noc(C(F)(F)F)n4)s3)c3cnccn3)c2)C1` [Example FX, 5-[3-(Dimethylamino)azetidine-1-carbonyl]-N-(pyrazin-2-yl)-N-({5-[5-(trifluoromethyl)-1,2,4-oxadiazol-3-yl]thiophen-2-yl}methyl)pyridazin-3-amine], the EC50 is at least 10 µM in assay [1] and at most 1 µM in assay [2]. The IC50 on Human HDAC10 and at Human HDAC2 was above 10000 nM throughout.

Turning to `O=C(c1cnnc(N(Cc2ccc(-c3noc(C(F)(F)F)n3)s2)c2cnccn2)c1)N1CCC12COC2` [Example GF, 5-{6-Oxa-1-azaspiro[3.3]heptane-1-carbonyl}-N-(pyrazin-2-yl)-N-({5-[5-(trifluoromethyl)-1,2,4-oxadiazol-3-yl]thiophen-2-yl}methyl)pyridazin-3-amine], the figures for the EC50 in assay [1] and in assay [2] were at least 10 µM and at most 1 µM, respectively. Further, the IC50 at Human HDAC10 and at Human HDAC2 was above 10000 nM each time.

For `COC1CN(Cc2ccnc(N(Cc3ccc(-c4noc(C(F)(F)F)n4)s3)c3cnccn3)c2)C1` [Example GH, N-{4-[(3-Methoxyazetidin-1-yl)methyl]pyridin-2-yl}-N-({5-[5-(trifluoromethyl)-1,2,4-oxadiazol-3-yl]thiophen-2-yl}methyl)pyrazin-2-amine], the values for the EC50 in assay [1] and in assay [2] were at least 10 µM and at most 1 µM, respectively. Moreover, the IC50 at Human HDAC10 and at Human HDAC2 was above 10000 nM in each case.

Take `FC(F)(F)c1nc(-c2ccc(CN(c3cnccn3)c3cc(CN4CCOCC4)ccn3)s2)no1` [Example GI, N-{4-[(Morpholin-4-yl)methyl]pyridin-2-yl}-N-({5-[5-(trifluoromethyl)-1,2,4-oxadiazol-3-yl]thiophen-2-yl}methyl)pyrazin-2-amine]: the EC50 is at least 10 µM in assay [1] and at most 1 µM in assay [2]. Also, the concentration for half-maximal inhibition (IC50) at Human HDAC10 and at Human HDAC2 was above 10000 nM each time.

Turning to `O=C(c1cnnc(N(Cc2ccc(-c3noc(C(F)(F)F)n3)s2)c2cnccn2)c1)N1CC(C(F)(F)F)C1` [Example GJ, N-(Pyrazin-2-yl)-N-({5-[5-(trifluoromethyl)-1,2,4-oxadiazol-3-yl]thiophen-2-yl}methyl)-5-[3-(trifluoromethyl)azetidine-1-carbonyl]pyridazin-3-amine], the EC50 in assay [1] is at least 10 µM; in assay [2], at most 1 µM. Moreover, the IC50 on Human HDAC10 and at Human HDAC2 was above 10000 nM each time.

On to `O=C(c1cnnc(N(Cc2ccc(-c3noc(C(F)(F)F)n3)s2)c2cnccn2)c1)N1CC(C(F)F)C1` [Example GK, 5-[3-(Difluoromethyl)azetidine-1-carbonyl]-N-(pyrazin-2-yl)-N-({5-[5-(trifluoromethyl)-1,2,4-oxadiazol-3-yl]thiophen-2-yl}methyl)pyridazin-3-amine], for which the values for the concentration for a half-maximal effect (EC50) in assay [1] and in assay [2] were at least 10 µM and at most 1 µM, respectively. Besides, the IC50 on Human HDAC10 and at Human HDAC2 was above 10000 nM throughout.

For `COC1(C(F)(F)F)CN(C(=O)c2cnnc(N(Cc3ccc(-c4noc(C(F)(F)F)n4)s3)c3cnccn3)c2)C1` [Example GL, 5-[3-Methoxy-3-(trifluoromethyl)azetidine-1-carbonyl]-N-(pyrazin-2-yl)-N-({5-[5-(trifluoromethyl)-1,2,4-oxadiazol-3-yl]thiophen-2-yl}methyl)pyridazin-3-amine], the figures for the EC50 in assay [1] and in assay [2] were at least 10 µM and at most 1 µM, respectively. Besides, the IC50 at Human HDAC10 and at Human HDAC2 was above 10000 nM throughout.

As for `O=C(c1nccnc1N(Cc1ccc(-c2noc(C(F)(F)F)n2)s1)c1cnccn1)N1CCC1` [Example GP, 3-(Azetidine-1-carbonyl)-N-(pyrazin-2-yl)-N-({5-[5-(trifluoromethyl)-1,2,4-oxadiazol-3-yl]thiophen-2-yl}methyl)pyrazin-2-amine], the EC50 was at least 10 µM in assay [1] and 1 to 10 µM in assay [2]. In addition, the half-maximal inhibitory concentration (IC50) on Human HDAC10 and at Human HDAC2 was above 10000 nM in each case.

The record behind these values is US20210038607A1, “OXADIAZOLYLTHIOPHENE DERIVATIVES USEFUL AS HISTONE DEACETYLASE INHIBITORS” (Karus Therapeutics Limited, priority 2018, published 2021).
